Tested on: arthritis induced by injection of type II collagen in the mouse
Test: Model of arthritis induced by type II collagen in mice (CIA), hind paw plethysmometry
Type: in vivo
Conditions: for Total hind paw volume (sum of both hind paws) / Oedema (difference in paw volume from basal values on day 21) in both hind paws: group mean n=10, listed as Group E; for percentage inhibition of oedema versus the control group: 10 mg/kg BID
Protocol: The aim of the study was to determine the anti-inflammatory activity of the test item in a model of arthritis induced by injection of type II collagen in the mouse (CIA) and to compare the activity of two different formulations: micronized and non-micronized.
Induction of arthritis was carried out by an initial exposure to type II bovine collagen by a subcutaneous injection at the base of the tail (induction phase).
After a recovery time of 21 days, animals received a booster injection and approximately 4-5 weeks after the first injection there was an immune response with arthritis appearing in the extremities in the majority of the cases.
Four experimental groups were used in the study with 10 animals in each group:
Group D: Positive control: FCA+vehicle B.I.D.
Group E: Micronized Test Item (Micro) 10 mg/kg B.I.D.
Group F: Non-Micronized test item 10 mg/kg B.I.D.
Group G: Reference item: Indomethacin 1 mg/kg Q.D.
The dose administered to groups E and F was 10 mg/kg.
The dose administered to group G was 1 mg/kg.
The doses of the test and reference items were expressed as mg/Kg of compound administered to each animal.
The test and reference items were administered in a solution of methylcellulose (0.25%: vehicle).
The positive control group received the vehicle (methylcellulose 0.25%).
The test and reference items, as well as the vehicle were administered orally at a dosing volume of 5 mls/kg.
The route of administration used was oral by use of an intragastric cannula.
On the day of start of the study each mouse was injected subcutaneously at the base of the tail with a first dose of 0.1 ml of an emulsion of bovine type II collagen (1 mg/mL) in Freund's Complete Adjuvant. Afterwards, on day 21 after this first injection, a second booster injection of type II collagen was administered to all animals. In this occasion the collagen suspension was done using Incomplete Freund's Adjuvant.
Coinciding with the second booster injection on day 21 treatment with the test or reference items was started to the corresponding animals.
Treatment with the test or reference items was carried out for 31 consecutive days (days 21-51 of the experimental period). Additionally, a recovery period was included at the end of the treatment period from day 52 to day 65 in order to evaluate the duration of any anti-inflammatory effect observed once dosing has been terminated.
The animals' hind paw volume was measured by plethysmometry one day before the 1st injection of collagen, again one day before the second (booster) collagen injection (basal values) and then daily after administration of test/reference item until the end of the study. During the recovery period at the end of the study, hind paw volume was measured three times per week.
Additionally the data was also represented graphically, depicting changes in total hind paw volume, as well as oedema (differences from basal (day 21) values).

[1] = day 22, oral treatment days 21-51
[2] = day 23, oral treatment days 21-51
[3] = day 26, oral treatment days 21-51
[4] = day 27, oral treatment days 21-51
[5] = day 29, oral treatment days 21-51
[6] = day 30, oral treatment days 21-51
[7] = day 33, oral treatment days 21-51
[8] = day 34, oral treatment days 21-51
[9] = day 35, oral treatment days 21-51
[10] = day 36, oral treatment days 21-51
[11] = day 37, oral treatment days 21-51
[12] = day 40, oral treatment days 21-51
[13] = day 41, oral treatment days 21-51
[14] = day 42, oral treatment days 21-51
[15] = day 43, oral treatment days 21-51
[16] = day 44, oral treatment days 21-51
[17] = day 47, oral treatment days 21-51
[18] = day 48, oral treatment days 21-51
[19] = day 49, oral treatment days 21-51
[20] = day 50, oral treatment days 21-51
[21] = day 51, oral treatment days 21-51
[22] = day 54, recovery period after treatment days 21-51
[23] = day 56, recovery period after treatment days 21-51
[24] = day 58, recovery period after treatment days 21-51
[25] = day 61, recovery period after treatment days 21-51
[26] = day 63, recovery period after treatment days 21-51
[27] = day 65, recovery period after treatment days 21-51

## Oc1c(I)cc(I)cc1I [Micronized, 2,4,6-triiodophenol]
Day 0, before collagen and treatment
  Total hind paw volume (sum of both hind paws): 0.169
Day 20, basal, before treatment
  Total hind paw volume (sum of both hind paws): 0.238
[1]
  Oedema (difference in paw volume from basal values on day 21) in both hind paws: 0.006
  Total hind paw volume (sum of both hind paws): 0.244
[2]
  Oedema (difference in paw volume from basal values on day 21) in both hind paws: −0.010
  Total hind paw volume (sum of both hind paws): 0.228
[3]
  Oedema (difference in paw volume from basal values on day 21) in both hind paws: 0.014
  Total hind paw volume (sum of both hind paws): 0.252
[4]
  Oedema (difference in paw volume from basal values on day 21) in both hind paws: −0.007
  Total hind paw volume (sum of both hind paws): 0.231
[5]
  Oedema (difference in paw volume from basal values on day 21) in both hind paws: −0.003
  Total hind paw volume (sum of both hind paws): 0.234
[6]
  Oedema (difference in paw volume from basal values on day 21) in both hind paws: −0.001
  Total hind paw volume (sum of both hind paws): 0.237
[7]
  Oedema (difference in paw volume from basal values on day 21) in both hind paws: −0.007
  Total hind paw volume (sum of both hind paws): 0.231
[8]
  Oedema (difference in paw volume from basal values on day 21) in both hind paws: −0.010
  Total hind paw volume (sum of both hind paws): 0.228
[9]
  Oedema (difference in paw volume from basal values on day 21) in both hind paws: 0.012
  Total hind paw volume (sum of both hind paws): 0.250
[10]
  Oedema (difference in paw volume from basal values on day 21) in both hind paws: 0.006
  Total hind paw volume (sum of both hind paws): 0.244
[11]
  Oedema (difference in paw volume from basal values on day 21) in both hind paws: 0.001
  Total hind paw volume (sum of both hind paws): 0.239
[12]
  Oedema (difference in paw volume from basal values on day 21) in both hind paws: 0.026
  Total hind paw volume (sum of both hind paws): 0.263
[13]
  Oedema (difference in paw volume from basal values on day 21) in both hind paws: 0.018
  Total hind paw volume (sum of both hind paws): 0.256
[14]
  Oedema (difference in paw volume from basal values on day 21) in both hind paws: 0.003
  Total hind paw volume (sum of both hind paws): 0.241
[15]
  Oedema (difference in paw volume from basal values on day 21) in both hind paws: 0.006
  Total hind paw volume (sum of both hind paws): 0.244
[16]
  Oedema (difference in paw volume from basal values on day 21) in both hind paws: 0.001
  Total hind paw volume (sum of both hind paws): 0.238
[17]
  Oedema (difference in paw volume from basal values on day 21) in both hind paws: 0.016
  Total hind paw volume (sum of both hind paws): 0.254
Day 48, P<0.05
  percentage inhibition of oedema versus the control group: 68.72±8.98%
[18]
  Oedema (difference in paw volume from basal values on day 21) in both hind paws: 0.016
  Total hind paw volume (sum of both hind paws): 0.254
[19]
  Oedema (difference in paw volume from basal values on day 21) in both hind paws: 0.023
  Total hind paw volume (sum of both hind paws): 0.261
Day 50, P<0.05
  percentage inhibition of oedema versus the control group: 70.56±9.88%
[20]
  Oedema (difference in paw volume from basal values on day 21) in both hind paws: 0.017
  Total hind paw volume (sum of both hind paws): 0.255
Day 51, highly significant
  percentage inhibition of oedema versus the control group: 77.59±9.08%
[21]
  Oedema (difference in paw volume from basal values on day 21) in both hind paws: 0.013
  Total hind paw volume (sum of both hind paws): 0.251
[22]
  Oedema (difference in paw volume from basal values on day 21) in both hind paws: 0.032
  Total hind paw volume (sum of both hind paws): 0.270
[23]
  Oedema (difference in paw volume from basal values on day 21) in both hind paws: 0.022
  Total hind paw volume (sum of both hind paws): 0.259
Day 56, P<0.05
  percentage inhibition of oedema versus the control group: 71.49±7.19%
[24]
  Oedema (difference in paw volume from basal values on day 21) in both hind paws: 0.030
  Total hind paw volume (sum of both hind paws): 0.268
Day 58, P<0.05
  percentage inhibition of oedema versus the control group: 66.29±5.13%
[25]
  Oedema (difference in paw volume from basal values on day 21) in both hind paws: 0.030
  Total hind paw volume (sum of both hind paws): 0.27
[26]
  Oedema (difference in paw volume from basal values on day 21) in both hind paws: 0.026
  Total hind paw volume (sum of both hind paws): 0.26
[27]
  Oedema (difference in paw volume from basal values on day 21) in both hind paws: 0.029
  Total hind paw volume (sum of both hind paws): 0.27
Day 65, P<0.05
  percentage inhibition of oedema versus the control group: 64.95±7.58%

From patent US7935853B2, “Micronized composition of a 2,4-disubstituted phenol derivative” (priority 2008, dated 2011)
